In patent US6458387B1, “Sustained release microspheres” (priority 1999, dated 2002):

Assays:
[1] = parameters: species or system dogs; conditions: dog
Description: The microspheres were formed and precipitated from solution. […] Estradiol was then loaded into human serum albumin microspheres at 3 different weight percent loadings. The estradiol was dissolved in ethyl alcohol and incubated in the presence of the albumin microspheres. […] The 10% by weight estradiol containing microspheres contained 1 mg of estradiol and 8.33 mg of Human Serum Albumin (HSA). The 49% by weight estradiol containing microspheres contained 8.15 mg of estradiol and 8.33 mg of HSA. The 77% by weight estradiol containing microspheres contained 27.68 mg of estradiol and 8.33 mg of HSA
The microspheres were injected into five dogs and the resulting serum concentrations were determined by radioimmuno assay for estradiol.

[2] = HSA microspheres, carbonyl diimidazole coupling
Description: Carbonyl diimidazole (100 mg, Sigma Chemical Co., St. Louis, Mo.) was added to a solution of 36 mg of the antiviral drug Virazole Registered TM (ICN Pharmaceuticals, Inc., Costa Mesa, Calif.) in 0.2 ml of dimethylformamide (DMF). The resulting mixture was allowed to stand at room temperature for four hours. To the mixture was added a mixture of 0.2 ml of human serum albumin (HSA) (25%, Armour Pharmaceutical Co., Collegeville, Pa.) and 0.4 ml of deionized water. The mixture was incubated for 30 minutes at room temperature, for 30 minutes at 37° C., and for 30 minutes at 58° C. and then cooled to room temperature. Particles were isolated by centrifugation, washed with deionized water three times and resuspended in 20 ml of water.

[3] = human serum albumin microspheres; 0.01M, 0.1M or 1M zinc sulfate
Description: Nafarelin acetate (Roche Laboratories, Nutley, N.J.) was dissolved in deionized water to produce a 10 mg/ml solution.
To 1 mg of nafarelin acetate was added 10 mg of the human serum albumin microspheres. The mixture was vortexed and mixed for 16 hours at 4° C. A 3M ammonium sulfate solution was added to the mixture to a final concentration of 0.5M and vortexed and mixed for 15 minutes at ambient temperature.
The mixtures were centrifuged, supernatant decanted and pellet resuspended in deionized water three times to wash the microspheres.

[4] = In vitro release from leuprolide acetate/HSA microspheres (Example 5); format: physicochemical; conditions: leuprolide acetate/HSA/dextran sulfate/PEG/PVP microspheres
Description: A 0.010 mL aliquot of a solution of 10-100 mg/mL leuprolide acetate in water (LHRH, TAP Pharmaceuticals, Deerfield, Ill.) was added to 0.168 mL of a 2-10% (weight/volume) solution of dextran sulfate in water (average molecular weight 500 kDa), and the solution was thoroughly mixed. To the leuprolide/dextran solution was added a 0.856 niL aliquot of a solution containing 25% (weight/volume) polyethylene glycol, having an average molecular weight of 3.35 kDa (Spectrum, Gardena, Calif.), and 25% (weight/volume) polyvinylpyrrolidone, having an average molecular weight of 40 kDa, in an aqueous solution of 0.1M sodium acetate, pH 5.5. The resulting solution was thoroughly mixed and allowed to stand for up to 30 minutes. A 0.25 mL aliquot of a 20% (weight/volume) solution of human serum albumin (Sigma Chemical Co., St. Louis, Mo.) in water was then added to the solution. The final solution was thoroughly mixed and placed in a water bath at between 70° C. and 90° C. for a period of time between 30 minutes and 3 hours.
In vitro release of leuprolide acetate was measured by centrifugation of microspheres and resuspension in a phosphate buffered saline release medium.

Row | SMILES | percentage of drug incorporated into the particles [2] | effect of additive on release of protein and peptide from the microspheres [4] | further results
1 | C[C@]12CC[C@@H]3c4ccc(O)cc4CC[C@H]3[C@@H]1CC[C@@H]2O [estradiol control, estradiol] | – | – | half life of estradiol in vivo [1]: shortest half life
2 | NC(=O)c1ncn([C@@H]2O[C@H](CO)[C@@H](O)[C@H]2O)n1 [Virazole Registered TM] | 10% | – | –
3 | O=S(=O)([O-])[O-].[Zn+2] [zinc sulfate] | – | retarded the release | effect of additive on rate of release of nafarelin acetate [3]: reduced the rate of release
4 | CO[C@H]1/C=C/O[C@@]2(C)Oc3c(C)c(O)c4c(O)c(c(/C=N/N5CCN(C)CC5)c(O)c4c3C2=O)NC(=O)/C(C)=C\C=C\[C@H](C)[C@H](O)[C@@H](C)[C@@H](O)[C@@H](C)[C@H](OC(C)=O)[C@@H]1C [Rifampicin TM, 3-[4-methylpiperazinyliminomethyl] rifamycin] | greater than 6.8% | – | –
5 | CCCCCCCC(=O)O [caprylic acid] | – | retarded the release | –
